Legend:
Experiment in all cases: Mass spectroscopy proteomics, semi-quantitative binding affinity of serum proteins (plaqueproteome, Table 2)
Conditions in all cases: higher number = stronger affinity
Tau plaque particles = system: Tau plaque particles; set-up: species or system human
Procedure: For Tau-74 (74-102) (Exon 3/Insert 2 domain) preparation, 1 mg of Tau-74 was suspended in 1 mL of PBS and the sample was incubated at 37° C. for 2 hrs. Similarly for preparing Tau-275 (275-305) (Repeat 2 domain) 1 mg of the peptide was suspended in 1 mL of PBS and the sample was incubated at 37° C. for 2 hrs. After incubation, all the samples were centrifuged for 5 min. at 5000 rpm to remove precipitate, if any, and the supernatant containing oligomers/aggregates were used for in vitro amyloid plaque particles formation assay. For detecting Tau plaque particles, Thioflavin S (Ex/Em=430 nm/550 nm) amyloid binding fluorescent dye (10 μg) was used in the assay.
Next, to isolate Tau plaque particles, as performed for Abeta-42 and Abeta-28 plaque particles isolation, diluted serum samples were used for incubation separately with Tau-45, Tau-74 and Tau-275 oligomers/aggregates. Each assay was performed in 1 mL reaction (800 μL of 50% plasma or serum) and 200 μL (30 μg) of each Tau aggregates and the mixtures were incubated at 37° C. for 1 hr. To the each mixture Thioflavin S dye (120 μg) was added and the sample was incubated for additional 30 min at 37° C. After the incubation, each sample was directly used for sample acquisition using flow cytometer (FACS ARIA II, BD Biosciences, San Jose, Calif.). After initial detection of Tau plaque particles, gates were drawn in the acquisition blot to separately sort and isolate fluorescently labeled Tau plaque particles.
(§1) For preparing trypsin digested peptide sequences, the isolated plaque particles were centrifuged at 10000 rpm for 5 min and the pellet containing plaque particles was resuspended in 100 μl PBS buffer. Stock solutions of digestion buffer (Ammonium Biocarbonate 50 mM), reducing buffer (DDT 100 mM) and alkylation buffer (lodoaceamide 100 mM) were prepared and stored at −20° C. for up to two months. For trypsin digestion, 100 μl of each plaque particles (2000 of Abeta-42, cholesterol, Tau and alpha-synuclein) were precipitated using cold acetone −80° C. by adding 4X's the volume. The samples were placed on dry ice for 10 min with intermittent vortex. Next, the samples were centrifuged at 4° C. at 10000 G for 10 min. Top layer of acetone was carefully removed from the tube with care not to disturb the plaque particles pellet. The samples were speed-vac for 10 min to ensure all acetone has been boiled away. The plaque particles pellet were reconstituted with 15 μl 8M Urea 100 mM Ammonium bicarbonate stock and 20 μl protease max solution. The protease max solution (Promega, Madison, Wis.) was prepared from stock by adding 60 μl 50 mM Ammonium bicarbonate and used for 3 solution digests (20 μl each). […] The tubes were incubated at 55° C. for 30 minutes. The tubes were then removed and brought to the room temperature followed by addition of 3.2 μl of 1M acrylamide and incubated at room temperature for 30 minutes. To the sample, 63 μL of 50 mM Ammonium bicarbonate was added for a final volume of 98 μl and 2 μl of trypsin (10 μg, Trypsin/Lys C Mix). After mixing the solution with pipet the samples were incubated at 37° C. overnight. After the overnight digest, the tryptic digest were quenched and acidified by adding 10 μl of 50% formic acid/water stock dilution. The samples were centrifuged at 10000 G for 2 minutes and purified using stage tip and used for MS/Mass analysis.
(§2) All MS/MS samples were analyzed using Sequest (Thermo Fisher Scientific, San Jose, Calif., USA; version 1.0). Sequest was set up to search the SUMS_uniprot_Human database (35847 entries) assuming the digestion enzyme strict trypsin. Sequest was searched with a fragment ion mass tolerance of 1.00 Da and a parent ion tolerance of 20 PPM. Propionamide of cysteine was specified in Sequest as a fixed modification. Oxidation of methionine and phospho of serine, threonine and tyrosine were specified in Sequest as variable modifications.

[1] = molecular target: T1, alpha-synuclein plaque particles (Homo sapiens, UniProt P37840)
T1 construct: 140 amino acids polypeptide
Procedure: To prepare oligomers/aggregates of human alpha-synuclein (140 amino acids polypeptide), 1 mg of the recombinant alpha-synuclein protein was suspended in 1 mL of PBS and the sample was incubated at 37° C. for 2 hrs. After incubation, all the samples were centrifuged for 5 min. at 5000 rpm to remove precipitate, if any, and the supernatant containing oligomers/aggregates were used in vitro plaque particles formation assay. For detecting alpha-synuclein plaque particles Thioflavin S (Ex/Em=430 nm/550 nm) amyloid binding fluorescent dye (10 μg) was used.
Similarly, to isolate alpha-synuclein plaque particles, diluted plasma or serum samples obtained from AD subjects were used for incubation with alpha-synuclein plaque oligomers/aggregates. Each assay was performed in 1 mL reaction (800 μL of 50% plasma or serum) and 200 μL (30 μg) of the alpha-synuclein aggregates and the mixtures were incubated at 37° C. for 1 hr. To the mixture Thioflavin S dye (120 μg) was added and the sample was incubated for additional 30 min at 37° C. After the incubation, the mixture was directly used for sample acquisition using flow cytometer (FACS ARIA II, BD Biosciences, San Jose, Calif.). After initial detection of alpha-synuclein plaque particles, gates were drawn in the acquisition blot to separately sort and isolate fluorescently labeled alpha-synuclein particles.
as §1, §2
Scaffold (version Scaffold_4.2.1, Proteome Software Inc., Portland, Oreg.) was used to validate MS/MS based peptide and protein identifications.

[2] = molecular target: T2, Abeta-42 plaque particles (Homo sapiens, UniProt P05067)
T2 construct: Abeta 1-42
Procedure: Next to isolate serum derived Abeta-42 plaque particles, the plasma or serum samples obtained from AD subjects were first centrifuged at 5,000 rpm for 5 min and the supernatants were transferred to new centrifuge tubes. Next, the supernatants were diluted in PBS to make 50% of the serum and plasma samples and used for incubation with Abeta-42 plaque oligomers/aggregates. Each assay was performed in 1 mL reaction (800 μL of 50% plasma or serum) and 200 μL (30 μg) of the Abeta-42 aggregates and the mixtures were incubated at 37° C. for 1 hr. To the mixture Thioflavin S dye (120 μg) was added and the sample was incubated for additional 30 min at 37° C. After the incubation, the mixture was directly used for sample acquisition using flow cytometer (FACS ARIA II, BD Biosciences, San Jose, Calif.). After initial detection of Abeta-42 plaque particles in the acquisition blot, gates were drawn in fluorescent dot blot to separately sort and isolate fluorescently labeled Abeta-42 particles.
as §1, §2
Scaffold (version Scaffold_4.2.1, Proteome Software Inc., Portland, Oreg.) was used to validate MS/MS based peptide and protein identifications. […] Protein probabilities were assigned by the Protein Prophet algorithm (Nesvizhskii, Al et al 2003). […] Proteins sharing significant peptide evidence were grouped into clusters. Proteins were annotated with GO terms from NCBI (downloaded Jan. 17, 2014).

[3] = system: Low density cholesterol (Chl small) plaque particles; set-up: species or system human
Procedure: (§3) The goal was to isolate plaque particles synthesized in the bio-fluids in a relatively pure form to enable their subsequent use for identification of components that contribute to the plaque formation. In order to isolate cholesterol plaque particles, the plasma or serum samples obtained from atherosclerotic subjects were first centrifuged at 5,000 rpm for 5 min and the supernatants were transferred to new centrifuge tubes. Next, the supernatants were diluted in PBS to make 50% of the serum and used for incubation with cholesterol oligomers/aggregates. Each assay was performed in 1 mL reaction (800 μL of 50% plasma or serum) and 200 μL (30 μg) of the Cholesterol aggregates and the mixtures were incubated at 37° C. for 1 hr After the incubation, the mixture was directly used for sample acquisition using flow cytometer (FACS ARIA II, BD Biosciences, San Jose, Calif.). […] In order to isolate these fractions, three sets of gates were drawn in the acquisition blot to separately sort and isolate High density or high complex cholesterol particles, Low density or low complex cholesterol particles and both High and low density cholesterol particles together.
as §1, §2
(§4) Scaffold (version Scaffold_4.2.1, Proteome Software Inc., Portland, Oreg.) was used to validate MS/MS based peptide and protein identifications. […] Protein probabilities were assigned by the Protein Prophet algorithm (Nesvizhskii, Al et al 2003).

[4] = system: High Density cholesterol (Chl Large) plaque particles; set-up: species or system human
Procedure: as §3, §1, §2, §4

Substance	Semi-quantitative analysis of proteins binding to different plaque particles: Tau (Tau plaque particles)	Semi-quantitative analysis of proteins binding to different plaque particles: Synuclein [1]	Semi-quantitative analysis of proteins binding to different plaque particles: Abeta-42 [2]	Semi-quantitative analysis of proteins binding to different plaque particles: Chl small [3]	Semi-quantitative analysis of proteins binding to different plaque particles: Chl Large [4]
Alpha-1-acid glycoprotein 1	11	7	12	8	9
Alpha-1-antitrypsin	28	20	–	21	22
Alpha-1B-glycoprotein	6	11	4	7	7
Alpha-2-macroglobulin	45	44	32	43	43
Antithrombin-III	6	9	5	6	8
Apolipoprotein A-I	14	18	19	21	21
Apolipoprotein A-II	10	7	5	6	8
Apolipoprotein B-100	65	42	62	51	47
Apolipoprotein C-I (TPDVSSALDKLKEFGNTLEDKARELISRIKQSELSAKMREWFSETFQKVKEKLKIDS)	1	0	2	1	1
Apolipoprotein C-III	5	1	4	4	4
Apolipoprotein E	13	8	–	9	7
Cluster of Alpha-1-antitrypsin	28	20	–	21	22
